From US20070134231A1, “Method for prolonging activity of autodegradable enzymes and compositions thereof” (priority 2005, published 2007)
Where a name gives a salt, the structure may show the parent alone. Where a SMILES comes first, the peptide text is derived from it.

Test system: not given
Test: not given
Settings: buffered acidified water, 4° C.; cited from earlier work

| Molecule | storage stability |
| --- | --- |
| plasmin: serine proteinase, formulated in buffered acidified water (reversibly inactive acidified plasmin) (protein, UniProt P00747 20-580; P00747 581-810, looked up, Plasmin acidified formulation) Plasmin heavy chain A: EPLDDYVNTQGASLFSVTKKQLGAGSIEECAAKCEEDEEFTCRAFQYHSKEQQCVIMAENRKSSIIIRMRDVVLFEKKVYLSECKTGNGKNYRGTMSKTKNGITCQKWSSTSPHRPRFSPATHPSEGLEENYCRNPDNDPQGPWCYTTDPEKRYDYCDILECEEECMHCSGENYDGKISKTMSGLECQAWDSQSPHAHGYIPSKFPNKNLKKNYCRNPDRELRPWCFTTDPNKRWELCDIPRCTTPPPSSGPTYQCLKGTGENYRGNVAVTVSGHTCQHWSAQTPHTHNRTPENFPCKNLDENYCRNPDGKRAPWCHTTNSQVRWEYCKIPSCDSSPVSTEQLAPTAPPELTPVVQDCYHGDGQSYRGTSSTTTTGKKCQSWSSMTPHRHQKTPENYPNAGLTMNYCRNPDADKGPWCFTTDPSVRWEYCNLKKCSGTEASVVAPPPVVLLPDVETPSEEDCMFGNGKGYRGKRATTVTGTPCQDWAAQEPHRHSIFTPETNPRAGLEKNYCRNPDGDVGGPWCYTTNPRKLYDYCDVPQCAAPSFDCGKPQVEPKKCPGR Plasmin light chain B: VVGGCVAHPHSWPWQVSLRTRFGMHFCGGTLISPEWVLTAAHCLEKSPRPSSYKVILGAHQEVNLEPHVQEIEVSRLFLEPTRKDIALLKLSSPAVITDKVIPACLPSPNYVVADRTECFITGWGETQGTFGAGLLKEAQLPVIENKVCNRYEFLNGRVQSTELCAGHLAGGTDSCQGDSGGPLVCFEKDKYILQGVTSWGLGCARPNKPGVYVRVSRFVTWIEGVMRNN | stable for at least nine months |

Same assay, conditions: buffered acidified water, room temperature; cited from earlier work

| Molecule | storage stability |
| --- | --- |
| plasmin: serine proteinase, formulated in buffered acidified water (reversibly inactive acidified plasmin) (protein, UniProt P00747 20-580; P00747 581-810, looked up, Plasmin acidified formulation) Plasmin heavy chain A: EPLDDYVNTQGASLFSVTKKQLGAGSIEECAAKCEEDEEFTCRAFQYHSKEQQCVIMAENRKSSIIIRMRDVVLFEKKVYLSECKTGNGKNYRGTMSKTKNGITCQKWSSTSPHRPRFSPATHPSEGLEENYCRNPDNDPQGPWCYTTDPEKRYDYCDILECEEECMHCSGENYDGKISKTMSGLECQAWDSQSPHAHGYIPSKFPNKNLKKNYCRNPDRELRPWCFTTDPNKRWELCDIPRCTTPPPSSGPTYQCLKGTGENYRGNVAVTVSGHTCQHWSAQTPHTHNRTPENFPCKNLDENYCRNPDGKRAPWCHTTNSQVRWEYCKIPSCDSSPVSTEQLAPTAPPELTPVVQDCYHGDGQSYRGTSSTTTTGKKCQSWSSMTPHRHQKTPENYPNAGLTMNYCRNPDADKGPWCFTTDPSVRWEYCNLKKCSGTEASVVAPPPVVLLPDVETPSEEDCMFGNGKGYRGKRATTVTGTPCQDWAAQEPHRHSIFTPETNPRAGLEKNYCRNPDGDVGGPWCYTTNPRKLYDYCDVPQCAAPSFDCGKPQVEPKKCPGR Plasmin light chain B: VVGGCVAHPHSWPWQVSLRTRFGMHFCGGTLISPEWVLTAAHCLEKSPRPSSYKVILGAHQEVNLEPHVQEIEVSRLFLEPTRKDIALLKLSSPAVITDKVIPACLPSPNYVVADRTECFITGWGETQGTFGAGLLKEAQLPVIENKVCNRYEFLNGRVQSTELCAGHLAGGTDSCQGDSGGPLVCFEKDKYILQGVTSWGLGCARPNKPGVYVRVSRFVTWIEGVMRNN | stable for at least two months |

Test system: not given
Test: not given
Settings: at 25° C.; cited from earlier work

| Molecule | pKa |
| --- | --- |
| O=S(=O)(O)CC(O)CNC(CO)(CO)CO (stereo not shown) [TAPSO, 2-hydroxy-3{tris(hydroxymethyl)methylamino}-1-propanesulfonic acid] | 7.61 |
| O=S(=O)(O)CCCCN1CCOCC1 [MOBS, 4-{N-morpholino}butanesulfonic acid] | 7.6 |
| 3-(N,N-bis{2-hydroxyethyl}amino)-2-hydroxypropane [DIPSO] | 7.52 |
| O=S(=O)(O)CCNC1CCCCC1 [CHES] | 9.5 |
| O=S(=O)(O)CCNC(CO)(CO)CO [TES, N-tris{hydroxymethyl}-methyl-2-aminoethanesulfonic acid] | 7.4 |

Target: T1, human plasmin (Homo sapiens, UniProt P00747)
T1 construct: which cleave a single-chain plasminogen molecule at the Arg^560 -Val^561 peptide bond, producing active plasmin; purchased Talecris, Inc. (Research Triangle Park, North Carolina)
Test: Plasmin precipitation study in buffer solutions (PBS, pH of about 7.4)
Type: physicochemical
Settings: Test No. 9: ε-aminocaproic acid in combination with gelatin 0.3% (w/v), pH of about 7.4
Method: This acidified, lyophilized plasmin was reconstituted with 0.9% (by weight) NaCl solution to a concentration of 10 mg/ml. […] Combinations of ε-aminocaproic acid and gelatin or glycerin were also tested. The concentration of plasmin in the additive-containing buffer was 1 mg/ml.

| Minimum Concentration of Additive Required to Prevent Visually Observed Plasmin Precipitation [mM] | Molecule |
| --- | --- |
| 0.1 | NCCCCCC(=O)O [ε-aminocaproic acid, reference compound] |

Same assay, conditions: Test No. 10: glycerin in combination with 0.1 mM ε-aminocaproic acid, pH of about 7.4

| Minimum Concentration of Additive Required to Prevent Visually Observed Plasmin Precipitation | Molecule |
| --- | --- |
| 6% (v/v) | OCC(O)CO [glycerin] |

Same assay, conditions: Test No. 10: ε-aminocaproic acid in combination with glycerin 6% (v/v), pH of about 7.4

| Minimum Concentration of Additive Required to Prevent Visually Observed Plasmin Precipitation [mM] | Molecule |
| --- | --- |
| 0.1 | NCCCCCC(=O)O [ε-aminocaproic acid, reference compound] |

Same assay, conditions: plasmin 1 mg/ml, observed within 2 hours

| Concentration Range Tested That Did Not Prevent Precipitation at pH of About 7.4 | Molecule |
| --- | --- |
| 50 mM | O=C(O)CCCCC(=O)O [adipic acid] |
| 2-20% v/v | CC(O)CO (stereo not shown) [propylene glycol] |
| 0.2% | CSCC[C@H](N)C(=O)O [L-methionine] |
| 10% | OC[C@H]1O[C@H](O[C@H]2O[C@H](CO)[C@@H](O)[C@H](O)[C@H]2O)[C@H](O)[C@@H](O)[C@@H]1O [trehalose] |
| 0.1 M | NCC(=O)O [glycine] |
| 50 mM | O=C(O)C(=O)O [oxalic acid] |
| 0.5-1 M | CN(C)CC(=O)O [N,N-dimethylglycine] |

| Molecule | Concentration Range Tested That Did Not Prevent Precipitation at pH of About 7.4 |
| --- | --- |
| O=S(=O)([O-])[O-].[Na+].[Na+] [sodium sulfate] | 0.3-0.6 M |

Same assay, conditions: single additive, pH of about 7.4, plasmin 1 mg/ml, observed within 2 hours

| Minimum Concentration of Additive Required to Prevent Visually Observed Plasmin Precipitation | Molecule |
| --- | --- |
| 10% (by weight) | OCC(O)CO [glycerin] |
| 0.5 mM | NC[C@H]1CC[C@H](C(=O)O)CC1 [tranexamic acid, trans-4-(aminomethyl)cyclohexanecarboxylic acid, reference compound] |
| 5 mM | NCCCC(=O)O [γ-aminobutyric acid] |
| 0.2 M | C[N+](C)(C)CC(=O)O [betaine, (carboxymethyl)trimethylammonium inner salt] |
| 1 M | CNCC(=O)O [sarcosine, N-methylglycine] |
| 1 mM | NCCCCC(=O)O [5-aminovaleric acid] |
| 10 mM | NCC(=O)NCC(=O)O [glycylglycine] (H-Gly-Gly-OH) |
| 12% (w/v) | OC[C@@H](O)[C@@H](O)[C@H](O)[C@@H](O)CO [D-sorbitol] |
| 1 mM | NCCCCCC(=O)O [ε-aminocaproic acid, reference compound] |
| 10 mM | NCC(=O)NCC(=O)NCC(=O)O [triglycine] (H-Gly-Gly-Gly-OH) |
| 5 mM | NCCCCCCC(=O)O [7-aminoheptanoic acid] |

| Molecule | Minimum Concentration of Additive Required to Prevent Visually Observed Plasmin Precipitation |
| --- | --- |
| CC(=O)N[C@@H](CCCNC(=N)N)C(=O)O [N-α-acetyl-L-arginine] | 50 mM |
| N=C(N)NCCC[C@H](N)C(=O)O [L-arginine] | 50 mM |
